Converted amounts (≈) assume the structure as drawn. The source made the active and inactive calls. The rule behind the calls is not given here.
Tested on: P388
Assay: Cytotoxicity against mouse P388 cells
Type: functional

| SMILES | Activity | EC50 (read-out: ED50 (the source's name)) |
| --- | --- | --- |
| CCCC(=O)O[C@@H]1C/C(C)=C\[C@@H]2OC(=O)[C@]3(C)O[C@]23[C@H](OC(C)=O)[C@H]2[C@@]3(C)O[C@H]3[C@@H](O)[C@H](OC(C)=O)[C@]2(C)[C@H]1OC(C)=O | inactive |  |
| CC(=O)O[C@H]1C[C@@H]2O[C@]2(C)[C@@H]2[C@@H](OC(C)=O)[C@]34O[C@@]3(C)C(=O)O[C@H]4/C=C(/CO)[C@H](OC(C)=O)C[C@H](OC(C)=O)[C@@]12C | inactive |  |
| CC(=O)OC/C1=C/[C@@H]2OC(=O)[C@]3(C)O[C@]23[C@H](OC(C)=O)[C@H]2[C@@]3(C)O[C@H]3C[C@H](OC(C)=O)[C@]2(C)[C@@H](OC(C)=O)C[C@H]1OC(C)=O | inactive |  |
| CC(=O)O[C@@H]1[C@H]2[C@@H](C)[C@@H](O)[C@@H](O)[C@H](OC(C)=O)[C@]2(C)[C@@H](OC(C)=O)[C@H](OC(C)=O)C/C(C)=C\[C@@H]2OC(=O)[C@]3(C)O[C@@]213 | inactive |  |
| CCCC(=O)O[C@@H]1C/C(C)=C\[C@@H]2OC(=O)[C@]3(C)O[C@]23[C@H](OC(C)=O)[C@H]2C(C)=C[C@@H](O)[C@H](OC(C)=O)[C@]2(C)[C@H]1OC(C)=O [STECHOLIDE I] |  | 23 µg/mL (≈ 38.8 µM) |
| CC(=O)O[C@H]1C[C@@H](OC(C)=O)/C(C)=C\[C@@H]2OC(=O)[C@]3(C)O[C@]23[C@H](OC(C)=O)[C@H]2[C@@](C)(O)[C@H](OC(C)=O)C=C[C@]12C | inactive |  |
| CC(=O)O[C@@H]1[C@@H]2O[C@]2(C)[C@@H]2[C@@H](OC(C)=O)[C@]34O[C@@]3(C)C(=O)O[C@H]4/C=C(/C)C[C@@H](OC(C)=O)[C@H](OC(C)=O)[C@@]2(C)[C@H]1OC(C)=O | inactive |  |
| CC(=O)O[C@@H]1[C@H]2C(C)=C[C@@H](O)[C@H](OC(C)=O)[C@]2(C)[C@@H](OC(C)=O)[C@H](OC(C)=O)C/C(C)=C\[C@@H]2OC(=O)[C@]3(C)O[C@@]213 | inactive |  |
| CC(=O)O[C@@H]1[C@H]2[C@@]3(C)O[C@H]3[C@@H](O)[C@H](OC(C)=O)[C@]2(C)[C@@H](OC(C)=O)[C@H](OC(C)=O)C/C(C)=C\[C@@H]2OC(=O)[C@]3(C)O[C@@]213 | inactive |  |

Source: ChEMBL document CHEMBL1148189, “New diterpenes from the gorgonian Solenopodium excavatum” (1993)
